Assay results from patent US5814470A, “Melittin-related polypeptides, mixture sets and libraries thereof” (priority 1997, dated 1998).

Legend:
[1] = Polypeptide conformation by CD spectroscopy (α-helix content); type: physicochemical; conditions: in the presence of 100 mM NaCl, 25° C.
Description: The library of sets of Example 1 was examined for the ability of each set to adopt an α-helical conformation. […] In the presence of 100 mM NaCl, the percent of α-helices varied from 20 to 40 percent.
All measurements were carried out on a Jasco J-720 circular dichroism spectropolarimeter (CD-Eaton, Md.), in conjunction with a Neslab RTE 110 waterbath and temperature controller at 25° C. (Dublin, Calif.). CD spectra were the average of a series of three to seven scans made at 0.2 nm intervals. Ellipticity was determined as means residue ellipticity, θ; the limits of error of measurements at 222 nm were ±500 (deg cm2 dmol^-1). For salt induced aggregation, stock solutions were separately prepared with 150 μM polypeptide sets in buffer (5 mM MOPS-NaOH, 100 mM NaCl).

[2] = tested on: human red blood cells (RBCs); assay: Hemolytic activity (HD50); type: cell-based; conditions: one hour at 37° C., OD 414 nm
Description: The hemolytic activities of the polypeptide mixture sets were determined by using human red blood cells (RBCs). The cells were washed three times with phosphate-buffered saline (PBS/35 mM phosphate buffer--0.15M NaCl, pH 7.0) and resuspended in PBS. The hemolytic activity of the polypeptide sets were determined as described in Blondelle et al., Biochem. Biophys. Acta, 1202:331-336 (1993) using 96 well tissue culture plates. In brief, 100 μl of 0.5 percent RBC solution were added to an equal volume of peptides in PBS. The plates were incubated for one hour at 37° C. and the optical density (OD) of the supernatant was measured at 414 nm. The concentration in peptide necessary to lyse 50 percent RBCs (HD50) was then determined for each peptide using a sigmoidal curve fitting method (Graphpad).

Staphylococcus aureus = conditions: no change in optical density over 18 hours; slightly different conditions; cited from earlier work

## Melittin
[1]
  percent of α-helices (helicity): about 20%
[2]
  HD50 (concentration necessary to lyse 50 percent RBCs): 6 µg/mL
Staphylococcus aureus
  minimum inhibitory concentration (MIC): 25 µg/mL
